The values that follow come from ChEMBL document CHEMBL1133556, “Carbonic anhydrase inhibitors: water-soluble 4-sulfamoylphenylthioureas as topical intraocular pressure-lowering agents with long-lasting effects” (J Med Chem, 2000).

The target of series [1] is Carbonic anhydrase 1 (Homo sapiens, UniProt P00915).
Description: Inhibitory activity against human recombinant carbonic anhydrase I
The target of series [2] is T1, Carbonic anhydrase 4 (Bos taurus, UniProt Q95323).
T1 sequence (Q95323 whole entry): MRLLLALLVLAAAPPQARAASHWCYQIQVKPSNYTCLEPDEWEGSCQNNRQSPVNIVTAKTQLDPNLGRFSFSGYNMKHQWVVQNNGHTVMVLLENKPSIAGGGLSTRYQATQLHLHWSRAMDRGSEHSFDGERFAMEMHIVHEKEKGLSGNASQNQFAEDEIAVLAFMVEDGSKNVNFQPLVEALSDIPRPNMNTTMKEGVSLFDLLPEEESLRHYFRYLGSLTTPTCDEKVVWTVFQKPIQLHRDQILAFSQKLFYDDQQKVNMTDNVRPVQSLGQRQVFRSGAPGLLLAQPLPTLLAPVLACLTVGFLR
Description: Inhibitory activity against bovine carbonic anhydrase IV from lung microsomes

For series [3], the target named is Carbonic anhydrase 2 (Homo sapiens, UniProt P00918).
Description: Inhibitory activity against human recombinant carbonic anhydrase II
The species entered for series [4] is Oryctolagus cuniculus.
Description: Tested in vivo for lowering IOP (Intraocular Pressure)in Normotensive Rabbits at pH 7.0 after treatment with 50 uL, activity at 90 minutes
Series [5] is filed under the species Oryctolagus cuniculus. The source holds these as a separate data set.
Description: Tested in vivo for lowering IOP (Intraocular Pressure)in Normotensive Rabbits at pH 7.0 after treatment with 50 uL, activity at 60 minutes
For series [6], the species on record is Oryctolagus cuniculus. This is another data set of the same source.
Description: Tested in vivo for lowering IOP (Intraocular Pressure)in Normotensive Rabbits at pH 7.0 after treatment with 50 uL, activity at 30 minutes
A short description of series [7]: physchem. The following applies: buffer, pH 7.4.
Description: Solubility (in uM) in pH 7.40 at 25 degree C
The conditions of series [8]: octanol/water.
Description: Partition coefficient (logD) (chloroform/buffer)
The species named for series [9] is Oryctolagus cuniculus. The source holds these as a separate data set.
Description: Tested in vitro for transcorneal accession rates (corneal permeability) against intact cornea
The species named for series [10] is Oryctolagus cuniculus. The source holds these as a separate data set.
Description: Tested in vitro for transcorneal accession rates (corneal permeability) against cornea with no epithelium

pKi: −log10 of the molar value. In brackets after ≈: the same amount, converted by molar mass. Residues, ends and D or L forms follow the SMILES beside them. *: point of attachment. X1 = NS(=O)(=O)c1ccc(NC(=S)*)cc1

Sequence of Carbonic anhydrase 1 (P00915 whole entry): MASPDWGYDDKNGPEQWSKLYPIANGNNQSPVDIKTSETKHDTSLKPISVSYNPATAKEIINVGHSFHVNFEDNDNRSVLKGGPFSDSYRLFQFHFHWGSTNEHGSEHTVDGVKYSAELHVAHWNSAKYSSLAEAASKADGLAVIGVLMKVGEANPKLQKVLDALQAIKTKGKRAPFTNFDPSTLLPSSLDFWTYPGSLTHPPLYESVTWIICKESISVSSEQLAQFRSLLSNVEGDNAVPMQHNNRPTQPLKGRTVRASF

Consider `NS(=O)(=O)c1ccc(NC(=S)NC(CC(=O)O)C(=O)NC(CC(=O)O)C(=O)O)cc1` (centres undefined), for which the pKi in series [1] is 7.30; in series [2] it was 7.49; in series [3] it was 7.82.
Turning to `NS(=O)(=O)c1ccc(N/C(S)=N/C(Cc2ccc(O)cc2)C(=O)O)cc1` (centres undefined), the pKi in series [1] was 7.59; in [2], 7.89; in series [3], 8.30.
On the same counts, the results for `NS(=O)(=O)c1ccc(NC(S)=NC(Cc2c[nH]cn2)C(=O)NC(Cc2ccccc2)C(=O)O)cc1` (centres undefined) are 7.68, 8.05 and 8.52.
As for `NS(=O)(=O)c1ccc(N=C=S)cc1`, the pKi in series [1] was 5.30; in series [3], 6.73.
For the compound `NS(=O)(=O)c1ccc(N/C(S)=N\CCc2ccccc2)cc1`, the results for the pKi in series [1], in series [2] and in series [3] were 6.90, 7.12 and 7.38, respectively.
For `NC(=O)CCC(NC(=S)Nc1ccc(S(N)(=O)=O)cc1)C(=O)O` (centres undefined), the pKi was 7.40 in series [1], 7.64 in series [2] and 8.05 in series [3].
Taken in the same sequence, the figures for `NS(=O)(=O)c1ccc(NC(=S)N2CCC[C@H]2C(=O)NCC(=O)NCC(=O)O)cc1` were 7.70, 7.96 and 8.52.
As to `CC(/N=C(/S)Nc1ccc(S(N)(=O)=O)cc1)C(=O)NC(Cc1ccccc1)C(=O)O` (centres undefined), the pKi is 7.64 in series [1], 7.89 in [2] and 8.40 in series [3]. The “Delta IOP” value in series [4] is reported as 3 mmHg; in [5], 0.2 mmHg; in [6], 0.2 mmHg.
As to `NS(=O)(=O)c1ccc(N/C(S)=N/C(C(=O)O)c2ccccc2)cc1` (centres undefined), in series [7], the solubility stood at 54 mM (≈ 19.7 mg/mL). The same compound came in with a logD in series [8] of 3.652. Moreover, the results for the pKi in [1], in series [2] and in series [3] were 7.40, 7.82 and 8.22, respectively. The kin is 5900 h⁻¹ in series [9] and 14300 h⁻¹ in series [10].
Turning to `NS(=O)(=O)c1ccc(N/C(S)=N/C(Cc2ccc(O)c(O)c2)C(=O)O)cc1` (centres undefined), the pKi in series [1] is 7.46; in series [2] it was 7.74; in [3], 8.15.
On the same counts, the results for `NS(=O)(=O)c1ccc(NC(=S)NC(CCC(=O)O)C(=O)O)cc1` (centres undefined) are 7.42, 7.72 and 8.00.
In the case of `NS(=O)(=O)c1ccc(N/C(S)=N\c2ccc(C(=O)O)cc2)cc1`, the pKi was 7.23 in series [1], 7.40 in [2] and 7.80 in [3].
In the case of `CC(C)C(/N=C(\S)Nc1ccc(S(N)(=O)=O)cc1)C(=O)O` (centres undefined), the pKi in [1] was 7.64; in series [2] it was 7.89; in series [3], 8.30.
Take `CC(O)C(NC(=S)Nc1ccc(S(N)(=O)=O)cc1)C(=O)O` (centres undefined): the pKi in series [1] was 7.52; in [2], 7.80; in series [3], 8.40.
`NS(=O)(=O)c1ccc(NC(=S)NC(CC(=O)O)C(=O)O)cc1` (centres undefined) displayed a solubility in [7] of 60 mM (≈ 20.8 mg/mL). Moreover, the logD in [8] is on record as 0.05. Further, the values for the pKi in series [1], in [2] and in [3] were 7.46, 7.77 and 8.10, respectively. Also, the “Delta IOP” value in series [4] is 2 mmHg; in series [5], 2.6 mmHg; in [6], 2 mmHg. The kin in series [9] turned out to be 100 h⁻¹; in series [10] it was 800 h⁻¹.
With `CC(=O)/N=c1/sc(S(N)(=O)=O)nn1C` [METHAZOLAMIDE], the logD in [8] amounted to 0.06. Also, the kin in [9] was 1900 h⁻¹; in series [10], 13000 h⁻¹.
For `CSCCC(/N=C(\S)Nc1ccc(S(N)(=O)=O)cc1)C(=O)O` (centres undefined), the values for the pKi in series [1], in [2] and in [3] were 7.57, 7.89 and 8.40, respectively.
On the same counts, the results for `CC(C)CC(/N=C(\S)Nc1ccc(S(N)(=O)=O)cc1)C(=O)NCC(=O)O` (centres undefined) are 7.70, 7.89 and 8.30.
On the same counts, the results for `NS(=O)(=O)c1ccc(NC(=S)N[C@@H](CC(=O)O)C(=O)N[C@@H](CC(=O)O)C(=O)N[C@@H](CC(=O)O)C(=O)N[C@@H](CC(=O)O)C(=O)O)cc1` (X1-DDDD-OH) are 7.23, 7.57 and 8.00.
Turning to `NS(=O)(=O)c1ccc(NC(=S)NC(Cc2cnc[nH]2)C(=O)NCC(=O)O)cc1` (centres undefined), the pKi in series [1] was 7.89; in series [2] it was 8.22; in series [3] it was 9.00.
With `NS(=O)(=O)c1ccc(N/C(S)=N\CCC(=O)O)cc1`, the pKi in [1] is 7.33; in [2] it was 7.46; in series [3], 7.96.
In the case of `N=C(N)NCCCC(/N=C(\S)Nc1ccc(S(N)(=O)=O)cc1)C(=O)O` (centres undefined), the results for the pKi in [1], in series [2] and in series [3] were 6.94, 7.21 and 7.82, respectively. The “Delta IOP” value in series [4] is 4 mmHg; in [5], 1.2 mmHg; in series [6], 1 mmHg.
With `NS(=O)(=O)c1ccc(NC(=S)NCC(=O)NCC(=O)O)cc1`, the pKi in series [1] was 7.27; in series [2] it was 7.49; in series [3], 7.82.
On the same counts, the results for `NS(=O)(=O)c1ccc(N/C(S)=N\CCc2ccccn2)cc1` are 6.91, 7.11 and 7.40.
Consider `CCC(C)C(/N=C(\S)Nc1ccc(S(N)(=O)=O)cc1)C(=O)O` (centres undefined), for which the pKi in series [1] was 7.66; in [2], 8.00; in series [3] it was 8.40. Also, the figures for the “Delta IOP” value in series [4], in [5] and in series [6] were 0.3 mmHg, 4 mmHg and 2 mmHg, respectively.
For `NS(=O)(=O)c1ccc(N/C(S)=N/C(Cc2ccccc2)C(=O)O)cc1` (centres undefined), the values for the pKi in [1], in [2] and in series [3] were 7.52, 7.89 and 8.22, respectively. Moreover, the results for the “Delta IOP” value in [4], in [5] and in [6] were 3 mmHg, 4.1 mmHg and 4 mmHg, respectively.
In the case of `CC(/N=C(/S)Nc1ccc(S(N)(=O)=O)cc1)C(=O)O` (centres undefined), the results for the pKi in [1], in [2] and in series [3] were 7.27, 7.44 and 7.92, respectively. Also, the “Delta IOP” value is reported as 5.2 mmHg in [4], 5 mmHg in [5] and 4 mmHg in series [6].
Consider `NS(=O)(=O)c1ccc(N/C(S)=N/C(Cc2c[nH]c3ccccc23)C(=O)O)cc1` (centres undefined), for which the results for the pKi in [1], in series [2] and in series [3] were 7.33, 7.62 and 7.96, respectively.
`NS(=O)(=O)c1ccc(N/C(S)=N\CC(=O)O)cc1`: the pKi in [1] is 7.21; in series [2], 7.41; in series [3] it was 7.70. For the same compound, the results for the “Delta IOP” value in series [4], in [5] and in series [6] were 0.5 mmHg, 5.9 mmHg and 3 mmHg, respectively.
Regarding `NS(=O)(=O)c1ccc(NC(=S)N2CCCC2C(=O)O)cc1` (centres undefined), the pKi in [1] was 6.96; in series [2], 7.17; in series [3], 7.60. Moreover, the “Delta IOP” value in series [4] stood at 1 mmHg; in [5], 1 mmHg; in [6], 0 mmHg.
With `NS(=O)(=O)c1ccc(N/C(S)=N\c2cccc(C(=O)O)c2)cc1`, the pKi in [1] was 7.30; in [2], 7.44; in series [3] it was 7.74.

For orientation: pKi means −log10 of the Ki, conventionally taken in molar units. Read a high pKi as a small Ki. The term solubility denotes the dissolved amount per volume that the medium holds. High values mean a readily soluble substance, low ones a poorly soluble substance. Usually logD stands for the decadic logarithm of the distribution of all forms, ionised or not, between an organic phase and buffer at a given pH.
